Assay results published in patent publication US20070196272A1, “ORAL DELIVERY OF THERAPEUTIC AGENTS USING TIGHT JUNCTION AGONISTS” (priority 2006, published 2007).
Read-outs that look alike come from different tables or passages of the source.

What was measured:
[1] = for intestinal transport of [^3H]-cyclosporin A, enhancement: AT-1002 40 mg/kg with PI and BC 0.1% w/v, ID
Text: Male Sprague-Dawley rats (230-280 g) were purchased from Harlan Laboratories (Indianapolis, Ind.). Rats were housed individually in cages and allowed to acclimate at least two days after arrival. Rats were fed Rat Chow and water ad libitum and maintained on a 12-h light: 12-h dark cycle. The protocol for the animal studies was approved by the School of Pharmacy, University of Maryland IACUC.
Male Sprague-Dawley rats were fasted overnight prior to and during the study with free access to water. Prior to the administration of AT1002, the rats were anesthetized with an intra-peritoneal injection of ketamine (80 mg/kg) and xylazine (12 mg/kg), and the duodenum and jugular vein were cannulated. […] Blood samples (250 μl) were drawn via the jugular cannula into heparinized syringes at 0 (actual time point was −5 min before the administration), 20, 60, and 120 min into polypropylene tubes, centrifuged (13,000 rpm for 10 min) immediately and plasma was obtained. Scintillation cocktail was added and samples were analyzed for radioactivity by Beckman Coulter LS 6500 multi-purpose Scintillation counter.
The area under the plasma concentration-time curve (AUC0-t) was calculated using the linear trapezoidal rule. The highest observable concentration was defined as maximum concentration (Cmax). The percent enhancement ratio, ER (%), for the pharmacokinetic parameters was calculated from the formula, [formula]
[^3H]-cyclosporin (120 μCi/kg) was co-administered with AT-1002 (40 mg/kg), protease inhibitors (i.e. bestatine (30 mg/kg) and E-64 (10 mg/kg)) and benzalkonium chloride (0.1% w/v) to rats (n=5 per group) via the intra-duodenal administration.

[2] = PI, BC 0.05% w/v, ID, not statistically enhanced
Caco-2 cell monolayers [3] = settings: AT1002 5 mM
Description: (§1) Caco-2 cells, a human colon adenocarcinoma cell line, were grown as monolayers for 21 days in Dulbecco's Modified Eagle's medium (1×) containing 10% fetal bovine serum, 1% non-essential amino acid solution, 1% penicillin-streptomycin and 2% glutamine at 37° C. in an atmosphere of 5% CO2 and 90% relative humidity. Caco-2 cells from passage numbers of 51 to 52 were seeded on permeable polycarbonate inserts (1 cm^2, 0.4 μm pore size) in 12 Transwell plates at a density of 80,000 cells/cm^2. The inserts were fed with media every other day until they were used for experiments 21 days after the initial seeding. The integrity of the cell monolayers was evaluated by measuring the transepithelial electrical resistance (TEER) values before the study using a Millicell®-ERS meter (Millipore Corp., Bedford, Mass.) with chopstick electrodes. […] The cell monolayers were washed twice with PBS prior to the transport experiments. After the wash, the plates were incubated for 30 min at 37° C., and the integrity of the cell monolayers was evaluated by measurement of TEER. The cell inserts were used in transport experiments when the TEER values reached >300 Ωcm^2.
(§2) The insert was moved to a well containing fresh PBS every 10 min for 40 min.
(§3) Papp was calculated according to the following equation: [formula] […]
(§4) The percent enhancement ratio, ER (%), for the Papp was calculated from the formula, [formula] […]

[4] = tested on: intercellular tight junctions; test: Ussing chamber model
Text: Our recent observation that zonulin may represent a new member of the serine protease family whose target receptor seems to be a variant of the protease activated receptor (PAR)2, lead us to the observation that the first six amino acids following V. cholerae-mediated ZOT cleavage (AA 289-295 [FCIGRL]) closely resembles the active motif of PAR2 (SLIGRL). Therefore, the six-mer synthetic peptide FCIGRL (that we named AT1002) was generated.

[5] = AT-1002 10 mg/kg with bestatine 30 mg/kg and E-64 10 mg/kg, oral, each sampling time
Description: The ability of AT-1002 on the transport of [^14C]-mannitol across the intestinal membrane was examined in mice. [^14C]-mannitol (30 μCi/kg) was co-administered with AT-1002 (10 mg/kg) and protease inhibitors (i.e. bestatine (30 mg/kg) and E-64 (10 mg/kg)) to mice (n=3 per group) via the oral administration.

[6] = AT-1002 10, 20 and 40 mg/kg, PI, BC 0.05% w/v, ID
Description: The effect of AT-1002 on the transport of [^14C]-innulin across the intestine was examined in mice. [^14C]-innulin (30 μCi/kg) was co-administered with AT-1002 (10, 20 and 40 mg/kg), protease inhibitors (i.e. bestatine (30 mg/kg) and E-64 (10 mg/kg)) and benzalkonium chloride (0.05% w/v) to rats (n=4-5 per group) via the intra-duodenal administration.

PAR-2 = molecular target: T1, PAR-2 (Mus musculus, UniProt P55086); settings: intracolonic infusion, 5 μg dose; cited from earlier work
T1 construct: Intracolonic infusion of a 5 μg dose of the PAR-2 agonist, SLIGRL; host or cells: colon in vivo (endogenous receptor)
T1 sequence (P55086 26-399): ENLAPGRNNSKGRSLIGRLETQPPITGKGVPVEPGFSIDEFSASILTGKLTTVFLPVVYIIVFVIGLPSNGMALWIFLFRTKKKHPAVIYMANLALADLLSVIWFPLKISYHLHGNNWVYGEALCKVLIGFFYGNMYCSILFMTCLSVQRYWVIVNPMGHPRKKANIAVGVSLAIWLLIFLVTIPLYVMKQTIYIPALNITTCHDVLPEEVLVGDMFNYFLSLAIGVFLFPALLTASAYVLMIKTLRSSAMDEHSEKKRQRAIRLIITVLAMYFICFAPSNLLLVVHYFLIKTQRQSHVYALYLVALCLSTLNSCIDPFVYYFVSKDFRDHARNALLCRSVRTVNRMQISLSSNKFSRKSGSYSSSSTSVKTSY

Caco-2 cell monolayers [7] = settings: ZOT 0.22 to 0.89×10^−10 mol/ml; as seen with paclitaxel; cited from earlier work
[8] = ZOT 4.4×10^−10 mol/kg; cited from earlier work
in vitro = settings: human, Caco-2
Description: as §1, §2, §3, §4

[9] = as seen with CsA after metabolic protection; cited from earlier work

H-FCIGRL-OH [AT1002, H—FCIGRL-OH]
intestinal transport of [^3H]-cyclosporin A, enhancement ([1]; 20 min): 1.78 fold | intestinal transport of [^3H]-cyclosporin A, enhancement ([1]; 60 min): 1.55 fold | change in plasma concentration of CsA between 10 mg/kg and 40 mg/kg of AT1002 ([1]; each time point): No statistically significant change | in vivo oral absorption of CsA ([1]; in the presence of PI): significantly increased | intestinal membrane transport of [^14C]-mannitol, increase ([2]; AT-1002 10 mg/kg): 1.43 fold | intestinal membrane transport of [^14C]-mannitol, increase ([2]; AT-1002 20 mg/kg): 1.24 fold | intestinal membrane transport of [^14C]-mannitol, increase ([2]; AT-1002 30 mg/kg): 1.81 fold | CsA transport across Caco-2 cell monolayers, significance vs control (Caco-2 cell monolayers [3]): No significant increases | permeating effect on intercellular tight junctions [4]: retained the ZOT permeating effect | intestinal membrane transport of marker [5]: not enhanced | intestinal membrane transport of [^14C]-innulin [6]: not enhanced

SLIGRL
increase in the paracellular permeability of [^51C]-EDTA (PAR-2): 2 fold

ZOT: 44.8 kDa protein (399 amino acids) of Vibrio cholerae that reversibly opens tight junctions
transport enhancement across Caco-2 cell monolayers (Caco-2 cell monolayers [7]): up to 30 fold | bioavailability of oral insulin / serum glucose lowering [8]: sufficient to lower serum glucose concentrations to levels comparable to those obtained after parenteral injection

OC[C@@H](O)[C@@H](O)[C@H](O)[C@H](O)CO [Mannitol]
Papp at 0.5 μCi/ml (in vitro): 0.686 ± 0.057 ×10⁻⁶ cm/s

ΔG: 12 kDa fragment (AA 265-399) of ZOT, biologically active fragment
increase in AUC [9]: ≤ 50 fold | increase in Cmax [9]: up to 57 fold
